Consider two compounds from patent publication US8470834B2, “AZO-substituted pyridine and pyrimidine derivatives and their use in treating viral infections” (Merck Sharp & Dohme Corp., priority 2008, dated 2013).

Data set [1] has as its system HCV replicon cells. The data set is described as follows: Cell-based HCV Replicon Assay. The conditions noted are these: Hepatitis C virus, 72 h; replicon RNA level by real time PCR (Taqman), day 3; EC90 = concentration to achieve ΔCT=3.2 over baseline. On the procedure: Assays Cell-based HCV Replicon Assay
To measure cell-based anti-HCV activity of the compounds of the present invention, replicon cells were seeded at 5000 cells/well in 96-well collagen I-coated Nunc plates in the presence of the compound of the invention. […] The final concentration of DMSO was 0.5%, fetal bovine serum was 10%, in the assay media. […] The replicon RNA level was measured using real time PCR (Taqman assay). The amplicon was located in 5B. The
GAPDH RNA was used as endogenous control and was amplified in the same reaction as NS5B (multiplex PCR) using primers and VIC-labeled probe recommended by the manufacturer (PE Applied Biosystem). The real-time RT-PCR reactions were run on ABI PRISM 7900HT Sequence Detection System using the following program: 48° C. for 30 min, 95° C. for 10 min, 40 cycles of 95° C. for 15 sec, 60° C. for 1 min. The ΔCT values (CT5B-CTGAPDH) were plotted against the concentration of test compound and fitted to the sigmoid dose-response model using GraphPad PRISM software. EC50 was defined as the concentration of inhibitor necessary to achieve ΔCT=1 over the projected baseline; EC90 the concentration necessary to achieve ΔCT=3.2 over the baseline. Alternatively, to quantitate the absolute amount of replicon RNA, a standard curve was established by including serially diluted T7 transcripts of replicon RNA in the Taqman assay. […]

SMILES strings stand for the structures.

Broadly, the melting point is the temperature, or range, at which the solid turns liquid. On to `Nc1nc(Cl)c(/N=N/c2ccc(Cl)cc2)c(N[C@H]2C[C@@H](CO)[C@H](O)[C@@H]2O)n1` [Compound 11, (1S,2R,3S,5S)-3-[[2-amino-6-chloro-5-[(4-chlorophenyl)azo]-4-pyrimidinyl]amino]-5-(hydroxymethyl)-1,2-cyclopentanediol], for which the melting point was 238 to 241 °C (dec.).

The term EC90 denotes the concentration needed for an effect of 90%. As to `Nc1nc(Cl)c(/N=N/c2ccc(Cl)cc2)c(N[C@@H]2C[C@H](CO)[C@@H](O)C2)n1` (racemic) [Compound 8, Cyclopentanemethanol, 4-[[2-amino-6-chloro-5-[(4-chlorophenyl)azo]-4-pyrimidinyl]amino]-2-hydroxy-, cis, trans—(+−)—], in data set [1], the EC90 is greater than 5 µM.
